# Data from patent US20250197409A1, “BIFUNCTIONAL COMPOUND AND PHARMACEUTICAL COMPOSITION COMPRISING THE BIFUNCTIONAL COMPOUND, AND METHOD FOR TREATING ANDROGEN RECEPTOR RELATED DISEASE BY USING THE SAME” (ANHORN MEDICINES CO., LTD., priority 2022, published 2025).
# Where two headings read alike, the source gives them in different places.
# Biological target: T1, androgen receptor (Homo sapiens, UniProt P10275, T878A)
# T1 construct: host or cells: LNCaP.FGC
# Assay: Androgen receptor degradation assay using Western blot analysis
# Format: cell-based
# Method in brief: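 LNCaP.FGC cells (2×10^5/well) treated with 10-fold serial dilutions in RPMI from 100 nM stock; untreated cells as negative control. AR Western signal normalized to GAPDH, expressed as % remaining versus untreated (100%). DC50 derived from calibration curve of serial dilutions.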
# [1] = 24 h, read-out: Androgen Receptor Remaining (%), LNCaP.FGC cells, 100 nM, 24 hr, normalized to GAPDH, untreated cells = 100%
# [2] = read-out: AR DC50 (concentration needed for 50% AR degradation); LNCaP.FGC cells, serial 10x dilutions from 100 nM
# [3] = LNCaP.FGC cells, serial 10x dilutions from 100 nM; read-out: AR DC50 (concentration needed for 50% AR degradation)
# [4] = 24 h, LNCaP.FGC cells, 100 nM, 24 hr, normalized to GAPDH, untreated cells = 100%; read-out: Androgen Receptor Remaining (%)
# T1 sequence (P10275 whole entry T878A): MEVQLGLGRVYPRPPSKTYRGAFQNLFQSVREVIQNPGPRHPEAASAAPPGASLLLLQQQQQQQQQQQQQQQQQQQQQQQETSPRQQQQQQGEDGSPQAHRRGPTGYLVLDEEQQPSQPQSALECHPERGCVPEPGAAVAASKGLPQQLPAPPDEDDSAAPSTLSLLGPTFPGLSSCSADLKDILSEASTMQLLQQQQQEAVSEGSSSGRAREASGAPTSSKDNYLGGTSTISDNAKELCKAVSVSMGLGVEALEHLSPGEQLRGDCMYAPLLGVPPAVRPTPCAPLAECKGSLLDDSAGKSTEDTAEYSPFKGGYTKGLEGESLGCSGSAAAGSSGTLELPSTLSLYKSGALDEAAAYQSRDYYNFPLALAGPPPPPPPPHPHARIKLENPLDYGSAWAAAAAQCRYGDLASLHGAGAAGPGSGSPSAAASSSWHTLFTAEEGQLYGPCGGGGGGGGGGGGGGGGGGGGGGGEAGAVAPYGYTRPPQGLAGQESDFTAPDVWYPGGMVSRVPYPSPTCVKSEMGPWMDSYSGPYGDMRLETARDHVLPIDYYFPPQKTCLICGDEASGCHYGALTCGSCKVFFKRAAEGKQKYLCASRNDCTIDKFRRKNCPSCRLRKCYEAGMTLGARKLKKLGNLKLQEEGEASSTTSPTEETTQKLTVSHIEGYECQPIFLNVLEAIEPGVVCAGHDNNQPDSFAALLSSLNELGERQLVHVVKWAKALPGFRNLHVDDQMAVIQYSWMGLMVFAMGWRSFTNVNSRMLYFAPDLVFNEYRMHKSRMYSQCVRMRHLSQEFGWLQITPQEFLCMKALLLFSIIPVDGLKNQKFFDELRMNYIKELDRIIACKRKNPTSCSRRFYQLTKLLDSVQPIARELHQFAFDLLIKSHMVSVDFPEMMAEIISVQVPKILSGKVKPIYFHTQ
# T1 sequence (Q96SW2 whole entry partner): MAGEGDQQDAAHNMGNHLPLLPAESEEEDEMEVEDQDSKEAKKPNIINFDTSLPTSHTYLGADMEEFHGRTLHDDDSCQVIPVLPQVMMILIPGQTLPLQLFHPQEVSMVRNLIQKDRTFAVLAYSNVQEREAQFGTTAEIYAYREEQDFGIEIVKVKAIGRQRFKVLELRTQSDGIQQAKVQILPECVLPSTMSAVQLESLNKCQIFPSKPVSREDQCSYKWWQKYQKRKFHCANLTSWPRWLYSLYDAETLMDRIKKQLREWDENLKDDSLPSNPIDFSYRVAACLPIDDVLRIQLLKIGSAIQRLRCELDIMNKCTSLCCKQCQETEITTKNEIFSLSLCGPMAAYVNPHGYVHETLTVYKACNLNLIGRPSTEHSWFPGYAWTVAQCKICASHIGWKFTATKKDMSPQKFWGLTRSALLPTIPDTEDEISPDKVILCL
DC50 [3],remaining activity at 0.1 µM [4],Compound,remaining activity at 0.1 µM [1],DC50 [2]
–,–,CCn1c2c(c3ccc(OCCOC4CC5(CCN(c6ccc(C(=O)N[C@H]7CC[C@H](N(C)c8ccc(C#N)c(Cl)c8)CC7)nn6)CC5)C4)cc31)C(=O)N(C1CCC(=O)NC1=O)C2=O (stereo partly shown) [Compound 148],30%,10 to 25 nM
–,–,Cn1c2c(c3ccc(OCCCCOC4CCN(c5ccc(C(=O)N[C@H]6CC[C@H](N(C)c7ccc(C#N)c(Cl)c7)CC6)nn5)CC4)cc31)C(=O)N(C1CCC(=O)NC1=O)C2=O (stereo partly shown) [Compound 186],–,10 to 25 nM
–,–,CCn1c2c(c3ccc(OCCCCN4CCN(c5ccc(C(=O)N[C@H]6CC[C@H](N(C)c7ccc(C#N)c(Cl)c7)CC6)nn5)CC4=O)cc31)C(=O)N(C1CCC(=O)NC1=O)C2=O (stereo partly shown) [Compound 150],40%,–
–,–,CCn1c2c(c3ccc(OC4CCN(CC5CN(c6ccc(C(=O)N[C@H]7CC[C@H](Oc8ccc(C#N)c(Cl)c8)CC7)nn6)C5)CC4)cc31)C(=O)N(C1CCC(=O)NC1=O)C2=O (stereo partly shown) [Compound 210],–,10 to 25 nM
–,–,CCn1c2c(c3ccc(OCCOCCN4CCN(c5ccc(C(=O)N[C@H]6CC[C@H](Oc7ccc(C#N)c(Cl)c7)CC6)nn5)CC4)cc31)C(=O)N(C1CCC(=O)NC1=O)C2=O (stereo partly shown) [Compound 113],26%,10 to 25 nM
–,–,CC(C)n1c2c(c3cc(OCCN4CCN(c5ccc(C(=O)N[C@H]6C(C)(C)[C@H](Oc7ccc(C#N)c(Cl)c7)C6(C)C)cn5)CC4)ccc31)C(=O)N(C1CCC(=O)NC1=O)C2=O (stereo partly shown) [Compound 16],96%,–
–,–,CCn1c2c(c3ccc(OCCOC4CCC5(CC4)CN(c4ccc(C(=O)N[C@H]6CC[C@H](N(C)c7ccc(C#N)c(Cl)c7)CC6)nn4)C5)cc31)C(=O)N(C1CCC(=O)NC1=O)C2=O (stereo partly shown) [Compound 156],37%,25 to 100 nM
–,–,N#Cc1ccc(O[C@H]2CC[C@H](NC(=O)c3ccc(N4CCN(CCOc5ccc6c7c(n(CC(F)F)c6c5)C(=O)N(C5CCC(=O)NC5=O)C7=O)CC4)nn3)CC2)cc1Cl (stereo partly shown) [Compound 105],42%,25 to 100 nM
–,–,CCn1c2c(c3ccc(OCCCCN4CCCN(c5ccc(C(=O)N[C@H]6CC[C@H](Oc7ccc(C#N)c(Cl)c7)CC6)nn5)CC4)cc31)C(=O)N(C1CCC(=O)NC1=O)C2=O (stereo partly shown) [Compound 90],28%,25 to 100 nM
–,–,CCn1c2c(c3ccc(OCCCOC4CCN(c5ccc(C(=O)N[C@H]6CC[C@H](Oc7ccc(C#N)c(Cl)c7)CC6)nn5)CC4)cc31)C(=O)N(C1CCC(=O)NC1=O)C2=O (stereo partly shown) [Compound 159],8%,25 to 100 nM
–,–,CCn1c2c(c3ccc(OCCCCN4CCN(c5ccc(C(=O)N[C@H]6CC[C@H](N(C)c7ccc(C#N)c(Cl)c7)CC6)nn5)CC4)cc31)C(=O)N(C1CCC(=O)NC1=O)C2=O (stereo partly shown) [Compound 91],0%,10 to 25 nM
–,–,CCn1c2c(c3ccc(OCCCN4CCC5(CC4)CCN(c4ccc(C(=O)N[C@H]6CC[C@H](Oc7ccc(C#N)c(Cl)c7)CC6)nn4)CC5)cc31)C(=O)N(C1CCC(=O)NC1=O)C2=O (stereo partly shown) [Compound 183],–,10 to 25 nM
–,–,CCCn1c2c(c3ccc(OCCCN4CCN(c5ccc(C(=O)N[C@H]6C(C)(C)[C@H](Oc7ccc(C#N)c(Cl)c7)C6(C)C)cn5)CC4)cc31)C(=O)N(C1CCC(=O)NC1=O)C2=O (stereo partly shown) [Compound 22],89%,–
–,–,CCn1c2c(c3ccc(OCC(=O)N4CC5(CCN(c6ccc(C(=O)N[C@H]7CC[C@H](Oc8ccc(C#N)c(Cl)c8)CC7)nn6)CC5)C4)cc31)C(=O)N(C1CCC(=O)NC1=O)C2=O (stereo partly shown) [Compound 127],58%,–
–,–,CCn1c2c(c3ccc(OCCCN4CC5(CCN(c6ccc(C(=O)N[C@H]7CC[C@H](Oc8ccc(C#N)c(Cl)c8)CC7)nn6)CC5)C4)cc31)C(=O)N(C1CCC(=O)N(COCC[Si](C)(C)C)C1=O)C2=O (stereo partly shown) [Compound 94],89%,–
–,–,CCn1c2c(c3ccc(OCCCCN4CCCN(c5ccc(C(=O)N[C@H]6CC[C@H](N(C)c7ccc(C#N)c(Cl)c7)CC6)nn5)CC4)cc31)C(=O)N(C1CCC(=O)NC1=O)C2=O (stereo partly shown) [Compound 112],32%,10 to 25 nM
–,–,CCn1c2c(c3ccc(OC4CCN(CC5CCN(c6ccc(C(=O)N[C@H]7C(C)(C)[C@H](Oc8ccc(C#N)c(Cl)c8)C7(C)C)nn6)CC5)CC4)cc31)C(=O)N(C1CCC(=O)NC1=O)C2=O (stereo partly shown) [Compound 212],–,25 to 100 nM
10 to 25 nM,–,CC(COc1ccc2c3c(n(C)c2c1)C(=O)N(C1CCC(=O)NC1=O)C3=O)CN1CC=C(c2ccc(C(=O)N[C@H]3CC[C@H](Oc4ccc(C#N)c(Cl)c4)CC3)nn2)CC1 (stereo partly shown) [Compound 200],–,–
–,–,CC(C)n1c2c(c3cc(OCCN4CCN(c5ccc(C(=O)N[C@H]6C(C)(C)[C@H](Oc7ccc(C#N)c(Cl)c7)C6(C)C)nc5)CC4)ccc31)C(=O)N(C1CCC(=O)NC1=O)C2=O (stereo partly shown) [Compound 13],155%,–
–,–,CCn1c2c(c3ccc(OCCN4CCN(c5ccc(C(=O)N[C@H]6CC[C@H](Oc7ccc(C#N)c(Cl)c7)CC6)cc5)CC4)cc31)C(=O)N(C1CCC(=O)NC1=O)C2=O (stereo partly shown) [Compound 32],59%,–
–,–,CCn1c2c(c3ccc(OCC(=O)N4CCC5(CC4)CN(c4ccc(C(=O)N[C@H]6CC[C@H](N(C)c7ccc(C#N)c(Cl)c7)CC6)nn4)C5)cc31)C(=O)N(C1CCC(=O)N(CO)C1=O)C2=O (stereo partly shown) [Compound 128],63%,–
–,–,CCn1c2c(c3ccc(OC4CCN(CC5CCN(c6ccc(C(=O)N[C@H]7C(C)(C)[C@H](Oc8ccc(C#N)c(Cl)c8)C7(C)C)cc6)CC5)CC4)cc31)C(=O)N(C1CCC(=O)NC1=O)C2=O (stereo partly shown) [Compound 214],–,> 100 nM
–,–,CCn1c2c(c3ccc(OCCCN4C[C@H](C)N(c5ccc(C(=O)N[C@H]6CC[C@H](Oc7ccc(C#N)c(Cl)c7)CC6)nn5)C[C@H]4C)cc31)C(=O)N(C1CCC(=O)NC1=O)C2=O (stereo partly shown) [Compound 59],66%,–
10 to 25 nM,22%,Cn1c2c(c3ccc(OCCCN4CCN(c5ccc(C(=O)N[C@H]6C(C)(C)[C@H](Oc7ccc(C#N)c(Cl)c7)C6(C)C)cn5)CC4)cc31)C(=O)N(C1CCC(=O)NC1=O)C2=O (stereo partly shown) [Compound 8],–,–
–,–,CCn1c2c(c3ccc(OCC(=O)N4CCC5(CC4)CN(c4ccc(C(=O)N[C@H]6CC[C@H](Oc7ccc(C#N)c(Cl)c7)CC6)nn4)C5)cc31)C(=O)N(C1CCC(=O)N(CO)C1=O)C2=O (stereo partly shown) [Compound 122],33%,> 100 nM
–,–,CCn1c2c(c3ccc(OC(=O)NC4CCN(c5ccc(C(=O)N[C@H]6CC[C@H](N(C)c7ccc(C#N)c(Cl)c7)CC6)nn5)CC4)cc31)C(=O)N(C1CCC(=O)NC1=O)C2=O (stereo partly shown) [Compound 144],86%,–
10 to 25 nM,16%,Cn1c2c(c3ccc(OCCCN4CCN(c5ccc(C(=O)N[C@H]6CC[C@H](Oc7ccc(C#N)c(Cl)c7)CC6)nn5)CC4)cc31)C(=O)N(C1CCC(=O)NC1=O)C2=O (stereo partly shown) [Compound 39],–,–
–,–,CCn1c2c(c3ccc(OCCN4CC=C(c5ccc(C(=O)N[C@H]6CC[C@H](Oc7ccc(C#N)c(Cl)c7)CC6)nn5)CC4)cc31)C(=O)N(C1CCC(=O)NC1=O)C2=O (stereo partly shown) [Compound 191],–,< 10 nM
–,–,CCn1c2c(c3ccc(OCCCCN4CCN(c5ccc(C(=O)N[C@H]6CC[C@H](Oc7ccc(C#N)c(Cl)c7)CC6)nn5)CC4)cc31)C(=O)N(C1CCC(=O)NC1=O)C2=O (stereo partly shown) [Compound 89],7%,< 10 nM
–,–,CCn1c2c(c3ccc(OCCN4CCN(c5ccc(C(=O)N[C@H]6CC[C@H](Oc7ccc(C#N)c(Cl)c7)CC6)nn5)[C@H](C)C4)cc31)C(=O)N(C1CCC(=O)NC1=O)C2=O (stereo partly shown) [Compound 99],39%,25 to 100 nM
